From publication PMC5242521 (PLoS ONE, 2017)
Where two headings read alike, the source gives them in different places.

Columns and labels:
[1] = biological target: T1, BCRP (Homo sapiens, UniProt Q9UNQ0); assay: BCRP activity: Hoechst 33342 retention in HEK-BCRP cells; type: cell-based; settings: for inhibition at 90 min, 100 μM: human
T1 construct: expressed in transfected cells; host or cells: HEK293
T1 sequence (Q9UNQ0 1-655): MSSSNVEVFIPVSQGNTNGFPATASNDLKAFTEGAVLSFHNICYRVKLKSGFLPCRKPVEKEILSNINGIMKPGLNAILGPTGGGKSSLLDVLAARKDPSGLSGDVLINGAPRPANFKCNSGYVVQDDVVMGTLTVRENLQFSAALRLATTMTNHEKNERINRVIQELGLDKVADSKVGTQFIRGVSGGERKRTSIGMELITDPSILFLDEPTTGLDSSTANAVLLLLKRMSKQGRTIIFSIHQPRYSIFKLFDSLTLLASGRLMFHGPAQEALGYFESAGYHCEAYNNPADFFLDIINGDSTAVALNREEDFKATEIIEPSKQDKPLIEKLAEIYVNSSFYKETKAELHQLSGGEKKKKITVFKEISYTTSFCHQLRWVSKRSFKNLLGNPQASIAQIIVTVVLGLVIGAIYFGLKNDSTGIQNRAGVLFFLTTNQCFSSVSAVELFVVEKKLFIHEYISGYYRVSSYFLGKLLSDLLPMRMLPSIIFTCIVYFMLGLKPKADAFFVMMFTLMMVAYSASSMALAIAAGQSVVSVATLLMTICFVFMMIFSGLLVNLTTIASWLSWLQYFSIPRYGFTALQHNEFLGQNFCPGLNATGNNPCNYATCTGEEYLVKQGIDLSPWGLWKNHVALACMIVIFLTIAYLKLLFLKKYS
Protocol: For retention assay (used for BCRP activity), HEK-BCRP cells cultured in 48-well plates were first loaded at 37°C with transport assay (200 μL/well) containing 16.2 μM Hoechst 33342 for 30 min. After washing twice in PBS (200 μL/well/washing), cells were reincubated in Hoechst 33342-free transport assay medium (200 μL/well) at 37°C for 90 min in the absence or presence of pyrethroids or of the BCRP reference inhibitor fumitremorgin C used at 10 μM. Cells were next lysed in distilled water (155 μL/well) after washing twice in PBS (200 μL/well/washing). The cell lysate was finally used for determining cellular protein content and intracellular retention of Hoechst 33342 (by spectrofluorimetry: excitation and emission wavelengths were 355 and 460 nm, respectively), as described above.
(§1) The initial tested concentration of pyrethroids was 100 μM.

[2] = biological target: P-gp (Homo sapiens, UniProt P08183); assay: P-gp activity: rhodamine 123 accumulation in MCF7R cells; settings: for inhibition at 100 μM: human, pH 7.4
Protocol: The effects of pyrethroids on activity of ABC and SLC transporters were determined through measuring cellular accumulation or retention of fluorescent or radiolabeled reference substrates for transporters, in the presence or absence of reference inhibitors, as previously described. The nature of cells and reference substrates and inhibitors used for transport assays are summarized in S3 Table.
For accumulation assays (performed for all transporters, excepted BCRP), transporter-expressing cells usually cultured in 48-well plates were first incubated at 37°C with reference substrates in the absence (control) or presence of pyrethroids or reference inhibitors, in a well-defined transport assay medium, consisting of 136 mM NaCl, 5.3 mM KCl, 1.1mM KH2PO4, 0.8 mM MgSO4, 1.8 mM CaCl2, 10 mM HEPES, 11 mM D-glucose and adjusted to pH = 7.4 (excepted for MATE transporter assays, for which pH was set to 8.4). The nature of substrates and reference inhibitors and the incubation times with substrates, that varied according to the transporter, were selected in agreement with previous studies and are indicated in S3 Table. The total incubation volume with substrates was 200 μL/well. After washing twice in phosphate-buffered saline (PBS) (200 μL/well/washing), cells were lysed in distilled water (155 μL/well). An aliquot of cell lysate (5 μL) was then taken for determining cellular protein content by the Bradford method. The rest of lysate (150 μL/well) was used for measuring intracellular accumulation of reference substrates by scintillation counting or spectrofluorimetry using a SpectraMax Gemini SX spectrofluorometer (Molecular Devices, Sunnyvale, CA, USA) (excitation and emission wavelengths were 485 and 535 nm, respectively, for rhodamine 123 and fluorescein, and 355 and 460 nm, respectively, for DAPI).
Intracellular concentrations of reference substrates were initially expressed as fluorescence arbitrary units (for fluorescent dye substrates) or as moles (for radiolabeled substrates) and normalized to cellular protein content, determined by the Bradford method. They were finally used for calculating percentage of transporter activity, according to the following equations [41, 45]: %ABCtransporter activity=([Substrateref inh]-[Substratepyrethroid])×100/([Substrateref inh]-[Substratecontrol]) (1) %SLC transporter activity=([Substratepyrethroid]-[Substratref inh])×100/([Substratecontrol]-[Substrateref inh]) (2) with [Substratepyrethroid] = cellular concentration of reference substrate in the presence of pyrethroid, [Substrateref inh] = cellular concentration of reference substrate in the presence of reference inhibitor and [Substratecontrol] = cellular concentration of reference substrate in control cells not exposed to pyrethroid or reference inhibitor.
The initial tested concentration of pyrethroids was 100 μM. […] Such concentrations were calculated using GraphPad Prism software (GraphPad Software, La Jolla, CA), through nonlinear regression based on the four parameter logistic function using the following equations: […]

[3] = biological target: T2, OATP1B1 (Homo sapiens, UniProt Q9Y6L6); assay: OATP1B1 activity: E3S accumulation in CHO-OATP1B1 cells; type: cell-based; settings: for inhibition at 100 μM: human, pH 7.4
T2 construct: expressed in transfected cells; host or cells: CHO
T2 sequence (Q9Y6L6 1-691): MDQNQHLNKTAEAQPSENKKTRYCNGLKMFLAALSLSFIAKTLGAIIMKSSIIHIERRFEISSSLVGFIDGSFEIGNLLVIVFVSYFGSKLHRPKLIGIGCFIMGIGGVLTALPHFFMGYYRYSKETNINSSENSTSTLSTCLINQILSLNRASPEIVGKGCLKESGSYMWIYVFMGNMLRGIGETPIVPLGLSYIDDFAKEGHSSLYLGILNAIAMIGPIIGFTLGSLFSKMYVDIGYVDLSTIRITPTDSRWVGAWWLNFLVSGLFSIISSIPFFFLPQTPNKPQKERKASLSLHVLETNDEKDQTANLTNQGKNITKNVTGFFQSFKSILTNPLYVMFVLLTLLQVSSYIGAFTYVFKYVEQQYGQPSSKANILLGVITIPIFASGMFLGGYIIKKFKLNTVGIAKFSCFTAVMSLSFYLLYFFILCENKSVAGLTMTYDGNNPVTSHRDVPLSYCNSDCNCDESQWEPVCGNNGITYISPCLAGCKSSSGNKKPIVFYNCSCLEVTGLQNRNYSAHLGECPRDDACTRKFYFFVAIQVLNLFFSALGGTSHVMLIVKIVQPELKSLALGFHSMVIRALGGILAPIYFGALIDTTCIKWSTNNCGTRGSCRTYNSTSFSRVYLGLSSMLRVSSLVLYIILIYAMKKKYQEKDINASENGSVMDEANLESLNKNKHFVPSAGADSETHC
Protocol: as §1

Sequence of P-gp (P08183 whole entry): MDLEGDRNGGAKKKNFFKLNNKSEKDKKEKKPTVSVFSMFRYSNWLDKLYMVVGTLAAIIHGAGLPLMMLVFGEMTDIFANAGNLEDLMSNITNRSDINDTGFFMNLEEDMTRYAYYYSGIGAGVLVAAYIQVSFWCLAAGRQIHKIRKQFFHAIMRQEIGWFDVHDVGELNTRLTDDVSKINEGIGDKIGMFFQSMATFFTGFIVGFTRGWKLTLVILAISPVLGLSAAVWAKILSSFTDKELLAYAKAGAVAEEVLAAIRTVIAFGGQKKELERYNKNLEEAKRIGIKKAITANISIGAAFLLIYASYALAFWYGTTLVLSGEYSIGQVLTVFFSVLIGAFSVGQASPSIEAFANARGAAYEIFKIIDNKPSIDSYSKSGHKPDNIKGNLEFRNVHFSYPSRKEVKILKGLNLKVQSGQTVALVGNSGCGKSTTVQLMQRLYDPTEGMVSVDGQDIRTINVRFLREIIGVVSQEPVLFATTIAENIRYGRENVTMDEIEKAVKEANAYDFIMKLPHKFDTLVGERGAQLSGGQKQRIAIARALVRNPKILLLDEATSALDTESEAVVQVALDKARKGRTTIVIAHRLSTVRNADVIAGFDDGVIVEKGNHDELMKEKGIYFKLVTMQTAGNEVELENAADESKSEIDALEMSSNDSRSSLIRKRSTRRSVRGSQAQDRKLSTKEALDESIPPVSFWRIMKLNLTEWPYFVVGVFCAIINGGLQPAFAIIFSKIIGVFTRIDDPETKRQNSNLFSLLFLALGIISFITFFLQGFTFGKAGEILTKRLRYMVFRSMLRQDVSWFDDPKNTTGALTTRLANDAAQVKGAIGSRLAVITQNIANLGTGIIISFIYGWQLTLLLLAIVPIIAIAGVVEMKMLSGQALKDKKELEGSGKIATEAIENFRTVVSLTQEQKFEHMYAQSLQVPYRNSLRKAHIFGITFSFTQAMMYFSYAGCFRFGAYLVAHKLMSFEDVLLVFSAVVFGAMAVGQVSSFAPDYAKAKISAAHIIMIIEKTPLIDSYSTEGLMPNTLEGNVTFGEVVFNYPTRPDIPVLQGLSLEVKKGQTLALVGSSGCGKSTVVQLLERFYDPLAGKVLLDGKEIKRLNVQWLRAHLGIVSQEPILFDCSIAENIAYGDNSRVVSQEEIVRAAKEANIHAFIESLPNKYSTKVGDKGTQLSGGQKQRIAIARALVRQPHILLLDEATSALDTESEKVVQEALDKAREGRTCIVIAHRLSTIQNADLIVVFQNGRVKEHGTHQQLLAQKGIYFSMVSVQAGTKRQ

Row | SMILES | IC50 [1] | inhibition at 90 min, 100 μM ([1]; pyrethroid 100 μM, HEK-BCRP cells, Hoechst 33342, read-out: inhibition of BCRP activity) | IC50 [2] | inhibition at 100 μM [2] | effect on P-gp activity ([2]; pyrethroid 100 μM) | IC50 [3] | inhibition at 100 μM ([3]; pyrethroid 100 μM, CHO-OATP1B1 cells, E3S, read-out: inhibition of OATP1B1 activity) | inhibition at 90 min, 100 μM [1] | inhibition at 100 μM [3]
1 | CC(C)=CC1C(C(=O)OCN2C(=O)C3=C(CCCC3)C2=O)C1(C)C (stereo not shown) [tetramethrin] | 72.5 µM | 67.1% | > 100 µM | 24.5% | moderately inhibited | 5.7 µM | > 85% | – | –
2 | C=CCC1=C(C)C(OC(=O)C2C(C=C(C)C)C2(C)C)CC1=O (stereo not shown) [allethrin] | 42.5 µM | – | > 100 µM | 32.7% | – | 16.5 µM | – | 83.9% | > 85%
